Measured values published in US9000175B2, “Bicyclic GPR119 modulators” (Lupin Limited, priority 2010, dated 2015).
“And” between values parts separate entries of the source, which are not always exact repeats. Identical values can stand only once.

Target: T1, human GPR119 (Homo sapiens, UniProt Q8TDV5)
T1 construct: expressed in transfected cells
T1 sequence (Q8TDV5 1-335): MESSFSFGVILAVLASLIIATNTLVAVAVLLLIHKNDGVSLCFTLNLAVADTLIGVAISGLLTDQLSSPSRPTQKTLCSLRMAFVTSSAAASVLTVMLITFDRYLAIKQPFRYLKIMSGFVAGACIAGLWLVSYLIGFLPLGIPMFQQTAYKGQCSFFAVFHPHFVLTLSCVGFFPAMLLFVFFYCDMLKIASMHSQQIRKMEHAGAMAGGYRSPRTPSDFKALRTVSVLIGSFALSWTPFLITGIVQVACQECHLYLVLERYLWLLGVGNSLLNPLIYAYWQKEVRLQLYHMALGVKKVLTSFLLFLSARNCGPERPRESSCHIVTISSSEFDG
Experiment: Cyclic AMP assay in stable cell line
Type: cell-based
Details: CHO-K1 cells stably transfected with human GPR119; cAMP levels (FRET, cAMP femto kit); 1 h at 37° C; read-out: EC50 Range
Method: Cyclic AMP Assay in Stable Cell Line:
Chinese Hamster Ovary (CHO-K1) cells were stably transfected with human GPR119 and were maintained in Ham's F-12 complete medium containing 10% heat inactivated FBS (Sigma, UK). The cells were maintained under a selection pressure with 500 μg/ml G418 (GENETICIN). Stable clones were analyzed for functional cAMP response to OEA (oleoylethanolamide).
To estimate activation of GPR119 and induction of cAMP levels by GPR119 agonists, cells were serum starvation for 18-24 h, trypsinized and seeded in 96 well plates at a, density of 7500 cells/well. The cells were then treated with test compounds diluted in serum free Ham's F12 for 1 h at 37° C. The cAMP levels were measured by using the cAMP femto kit (CisBio) by following the manufacturer's instructions. Following treatment with a test compound, the cells were lysed and cAMP levels were estimated by adding D2-labelled cAMP and europium-cryptate conjugated anti-cAMP antibody. Close proximity of D2 and cryptate results in FRET and the subsequent fluorescence that is measured at 665 and 620 nm. The FRET response is calculated as the ratio of fluorescence at 665 to fluorescence at 620 nm. The unlabelled cAMP produced as a result of GPR119 activation/agonism competes with the D2-cAMP leading to a decrease in the FRET signal. Thus the FRET signal is inversely proportional to the amount of cAMP produced by the treated cells. In a separate set of wells, known concentrations of cAMP were added in order to get a standard linear curve for extrapolation of the cAMP values in the unknown/test samples. Fluorescence was measured on BMG Labtech PHERAstar machine.
The concentration of compound required to stimulate a half-maximal response (EC50) was determined using the GraphPad Prism software.
The compounds prepared were tested using the above assay procedure and the results obtained are given below.

EC50 | SMILES
250 to 1000 nM | CC(C)c1noc(-c2ccc3c(ccn3-c3ccc(OC4CCN(C(=O)OC(C)(C)C)CC4)cn3)c2)n1 [Example-99, tert-Butyl-4-((6-(5-(3-isopropyl-1,2,4-oxadiazol-5-yl)-1H-indol-1-yl)pyridin-3-yl)oxy)piperidine-1-carboxylate]
250 to 1000 nM | CCc1cnc(N2CCC(Oc3ccc(-n4ccc5cc(-c6nc(C(C)C)no6)ccc54)nc3)CC2)nc1 [Example-100, 5-(1-(5-((1-(5-Ethylpyrimidin-2-yl)piperidin-4-yl)oxy)pyridin-2-yl)-1H-indol-5-yl)-3-isopropyl-1,2,4-oxadiazole]
50 to 250 nM | CCc1cnc(N2CCC(Oc3ccc(-n4ccc5cc(-c6nc(C)no6)ccc54)nc3)CC2)nc1 [Example-103, 5-(1-(5-((1-(5-Ethylpyrimidin-2-yl)piperidin-4-yl)oxy)pyridin-2-yl)-1H-indol-5-yl)-3-methyl-1,2,4-oxadiazole]
250 to 1000 nM | CCOC(=O)N1CCC(OCc2ccc(-n3ccc4cc(S(C)(=O)=O)ccc43)nc2)CC1 [Example-107, Ethyl 4-((6-(5-(methylsulfonyl)-1H-indol-1-yl)pyridin-3-yl)methoxy) piperidine-1-carboxylate]
50 to 250 nM | CC(C)OC(=O)N1CCC(OCc2ccc(-n3ccc4cc(S(C)(=O)=O)ccc43)nc2)CC1 [Example-108, Isopropyl 4-((6-(5-(methylsulfonyl)-1H-indol-1-yl)pyridin-3-yl)methoxy)piperidine-1-carboxylate]
250 to 1000 nM | Cc1noc(N2CCC(OCc3ccc(-n4ccc5cc(S(C)(=O)=O)ccc54)nc3)CC2)n1 [Example-112, 3-Methyl-5-(4-((6-(5-(methylsulfonyl)-1H-indol-1-yl)pyridin-3-yl)methoxy)piperidin-1-yl)-1,2,4-oxadiazole]
250 to 1000 nM | CCc1cnc(N2CCC(OCc3ccc(N4CCc5cc(S(C)(=O)=O)ccc54)nc3)CC2)nc1 [Example-113, 1-(5-(((1-(5-Ethylpyrimidin-2-yl)piperidin-4-yl)oxy)methyl)pyridin-2-yl)-5-(methylsulfonyl)indoline]
< 50 nM | CCc1cnc(N2CCC(Oc3ccc(-n4ccc5cc(NC(=O)C(C)(C)C)ccc54)nc3)CC2)nc1 [Example-118, N-(1-(5-((1-(5-Ethylpyrimidin-2-yl)piperidin-4-yl)oxy)pyridin-2-yl)-1H-indol-5-yl)pivalamide]
50 to 250 nM | CCc1cnc(N2CCC(Nc3ccc(-n4ccc5cc(S(C)(=O)=O)ccc54)nc3)CC2)nc1 [Example-119, N-(1-(5-Ethylpyrimidin-2-yl)piperidin-4-yl)-6-(5-(methylsulfonyl)-1H-indol-1-yl)pyridin-3-amine]
< 50 nM | CC(C)c1noc(N2CCC(Nc3ccc(-n4ccc5cc(S(C)(=O)=O)ccc54)nc3)CC2)n1 [Example-120, N-(1-(3-Isopropyl-1,2,4-oxadiazol-5-yl)piperidin-4-yl)-6-(5-(methylsulfonyl)-1H-indol-1-yl)pyridin-3-amine]
< 50 nM | CCc1cnc(N2CCC(Oc3ccc(-n4ccc5cc(NC(=O)C(C)C)ccc54)nc3)CC2)nc1 [Example-123, N-(1-(5-((1-(5-Ethylpyrimidin-2-yl)piperidin-4-yl)oxy)pyridin-2-yl)-1H-indol-5-yl)isobutyramide]
< 50 nM and 50 to 250 nM | CC(C)OC(=O)N1CCC(COc2ccc(-n3ccc4cc(NC(=O)C(C)C)ccc43)nc2)CC1 [Example-126, Isopropyl 4-(((6-(5-isobutyramido-1H-indol-1-yl)pyridin-3-yl)oxy)methyl)piperidine-1-carboxylate]
< 50 nM | CC(C)C(=O)Nc1ccc2c(ccn2-c2ccc(OC3CCN(C(=O)C(C)C)CC3)cn2)c1 [Example-127, N-(1-(5-((1-Isobutyrylpiperidin-4-yl)oxy)pyridin-2-yl)-1H-indol-5-yl) isobutyramide]
< 50 nM | CCc1cnc(N2CCC(Oc3ccc(-n4ccc5cc(NC(=O)OC(C)C)ccc54)nc3)CC2)nc1 [Example-132, Isopropyl(1-(5-((1-(5-ethylpyrimidin-2-yl)piperidin-4-yl)oxy)pyridin-2-yl)-1H-indol-5-yl)carbamate]
< 50 nM | CC(C)NC(=O)c1ccc2c(c1)CCN2c1ccc(OC2CCN(C(=O)OC(C)(C)C)CC2)cn1 [Example-136, tert-Butyl-4-((6-(5-(isopropylcarbamoyl)indolin-1-yl)pyridin-3-yl)-oxy) piperidine-1-carboxylate]
< 50 nM | CCOC(=O)Nc1ccc2c(ccn2-c2ccc(OC3CCN(c4nc(C(C)C)no4)CC3)cn2)c1 [Example-141, Ethyl(1-(5-((1-(3-isopropyl-1,2,4-oxadiazol-5-yl)piperidin-4-yl)oxy)pyridin-2-yl)-1H-indol-5-yl)carbamate]
< 50 nM | CCc1noc(N2CCC(Oc3ccc(-n4ccc5cc(NC(=O)OC(C)C)ccc54)nc3)CC2)n1 [Example-143, Isopropyl(1-(5-((1-(3-ethyl-1,2,4-oxadiazol-5-yl)piperidin-4-yl)oxy)pyridin-2-yl)-1H-indol-5-yl)carbamate]
50 to 250 nM | CCc1noc(N2CCC(Oc3ccc(-n4ccc5cc(C(=O)N(C)C)ccc54)nc3)CC2)n1 [Example-147, 1-(5-((1-(3-Ethyl-1,2,4-oxadiazol-5-yl)piperidin-4-yl)oxy)pyridin-2-yl)-N,N-dimethyl-1H-indole-5-carboxamide]
50 to 250 nM | CS(=O)(=O)c1ccc2c(ccn2-c2ccc(OC3CCN(Cc4ccc(C(F)(F)F)cc4)CC3)cn2)c1 [Example-153, 5-(Methylsulfonyl)-1-(5-((1-(4-(trifluoromethyl)benzyl)piperidin-4-yl)oxy)pyridin-2-yl)-1H-indole]
50 to 250 nM | CCc1cnc(N2CCC(Oc3ccc(-n4ccc5cc(OC)cnc54)nc3)CC2)nc1 [Example-157, 1-(5-((1-(5-Ethylpyrimidin-2-yl)piperidin-4-yl)oxy)pyridin-2-yl)-5-methoxy-1H-pyrrolo[2,3-b]pyridine]
250 to 1000 nM | CC(C)OC(=O)N1CCC(Oc2ccc(-n3ccc4cc(N5CCOC5=O)ccc43)nc2)CC1 [Example-166, Isopropyl 4-((6-(5-(2-oxooxazolidin-3-yl)-1H-indol-1-yl)pyridin-3-yl)oxy)piperidine-1-carboxylate]
< 50 nM | CCc1cnc(N2CCC(Oc3ccc(-n4cc(C)c5cc(S(C)(=O)=O)ccc54)nc3)CC2)nc1 [Example-168, 1-(5-((1-(5-Ethylpyrimidin-2-yl)piperidin-4-yl)oxy)pyridin-2-yl)-3-methyl-5-(methylsulfonyl)-1H-indole]
< 50 nM | CC(C)OC(=O)N1CCC(Oc2ccc(-n3ccc4cc(S(C)(=O)=O)ccc43)nc2)CC1 [Example-169, Isopropyl 4-((6-(5-(methylsulfonyl)-1H-indol-1-yl)pyridin-3-yl)oxy) piperidine-1-carboxylate]
< 50 nM | CCc1cnc(N2CCC(Oc3ccc(-n4ccc5cc(S(C)(=O)=O)cc(F)c54)nc3)CC2)nc1 [Example-171, 1-(5-((1-(5-Ethylpyrimidin-2-yl)piperidin-4-yl)oxy)pyridin-2-yl)-7-fluoro-5-(methylsulfonyl)-1H-indole]
50 to 250 nM | CCOC(=O)N1CCC(Oc2ccc(-n3ccc4cc(N5CCCC5=O)ccc43)nc2)CC1 [Example-182, Ethyl 4-((6-(5-(2-oxopyrrolidin-1-yl)-1H-indol-1-yl)pyridin-3-yl)oxy) piperidine-1-carboxylate]
